Reference: a melting point compilation (Tetko et al.)

## O=C(Nc1ccccc1)C(F)(F)F
  melting point: 86 to 90 °C

## CCCC(=O)Oc1c[nH]c2cc(Cl)ccc12
  melting point: 98 to 102 °C

## FC(F)(F)c1ccc(-c2nc(CCl)no2)cc1
  melting point: 48 to 50 °C

## CCc1cc(C#N)ccc1N
  melting point: 63 °C

## C#CCC(C)(C)C
  melting point: -75 °C

## CCCCCCCCCCCCOc1ccc(C=O)cc1OCCCCCCCCCCCC
  melting point: 70 to 73 °C

## Cc1c(C(N)=O)[nH]c2ccccc12
  melting point: 170 to 172 °C

## CCOC(=O)c1c(C)sc(Sc2ccccc2[N+](=O)[O-])c1OC(C)=O
  melting point: 130 to 131 °C

## CC1=CCC(C)C1=NNc1ccc([N+](=O)[O-])cc1[N+](=O)[O-] (stereo not given)
  melting point: 198 °C

## COc1ccc(SSc2ccc(OC)cc2)cc1
  melting point: 40 to 42 °C

## c1ccc2c(-c3cccc4ccccc34)cccc2c1
  melting point: 160 °C

## Cn1c(/C(C#N)=N/Nc2ccc(C(=O)O)cc2)nc2ccccc21
  melting point: 200 °C

## COc1ccc(/N=N/c2sc(/C(C#N)=N/Nc3ccc(F)cc3)nc2C)cc1
  melting point: 214 °C

## O=C1CCC(c2ccc(NC(=O)c3ccc(F)cc3)cc2)=NN1
  melting point: 285 to 287 °C

## C1=CCC(c2ccccc2)(c2ccccc2)C=C1
  melting point: 57 °C

## CC(C)CS
  melting point: -145 °C

## Oc1ccc(O)c(Br)c1
  melting point: 112 °C

## Brc1nc(Br)c(Br)[nH]1
  melting point: 208 to 212 °C

## CC[C@@]1(O)CC[C@]2(C)[C@H]3CC[C@]4(C)C(O)CC[C@H]4[C@@H]3CC[C@@]2(C)C1 (stereo not given in full)
  melting point: 168 to 169 °C

## O=C1OCCO1
  melting point: 39.5 °C

## Cc1n[nH]c(C)c1C(C)(C)C
  melting point: 104 °C

## CCCCNC(=O)OCC(C)(CCC)COC(N)=O (stereo not given)
  melting point: 50 °C

## CC(C)(C)OC(=O)Nc1ccc(CN)cc1
  melting point: 89 to 94 °C

## CCOC(=O)C12C(c3cc(Cl)ccc3OP1(=O)OCC)C1(C(=O)OCC)C2c2cc(Cl)ccc2OP1(=O)OCC (stereo not given)
  melting point: 256 to 258 °C

## CCCCCCCCCCCCCCCCCCCCCCCCCCCCCC[Si](Cl)(Cl)Cl
  melting point: 60 to 80 °C

## Sc1nnc(-c2ccco2)n1-c1ccc2c(c1)OCCO2
  melting point: 237 to 240 °C

## CC1(C)CCC2(C)CC=C3C(C)(CCC4C3(C)CCC3C(C)(C)C(O)CCC43C)C2C1 (stereo not given)
  melting point: 284 °C

## O=C(OCC(=O)N1CCCC1)c1ccccc1
  melting point: 58 °C

## CCCCCCCCCCCCCCCCCCCCCCCCCCCCCC(=O)O
  melting point: 93.6 °C

## O=[N+]([O-])c1ccc(C#Cc2ccc([N+](=O)[O-])cc2S(=O)(=O)Oc2ccccc2)c(S(=O)(=O)Oc2ccccc2)c1
  melting point: 185 to 186 °C

## CCCN(C(C)=O)c1ccccc1
  melting point: 49 °C

## O=S(=O)(O)c1ccc2ccc(S(=O)(=O)O)cc2c1
  melting point: 199 °C

## O=C(O)c1c(F)cnc(F)c1F
  melting point: 110 °C

## Cc1cccc(/N=N/c2c(C)[nH]c(=S)c(C#N)c2C)c1C
  melting point: 259 °C

## CCOC(=O)c1cc(C(C)(C)C)nn1Cc1c(C)cc(C)cc1C
  melting point: 72 to 74 °C

## Cn1cnc2[nH]c(N)nc(=O)c21
  melting point: 370 °C

## CC12CCC3C(CCC4CC(=O)CCC43C)C1CC(=O)C2 (stereo not given)
  melting point: 163 °C

## NS(=O)(=O)c1cc(Cl)c(Cl)cc1Cl
  melting point: 189 °C

## CN1CCCC1C(O)(c1ccccc1)c1ccccc1 (stereo not given)
  melting point: 66 to 69 °C

## N#Cc1ccc(-c2ccc(C(F)(F)F)cn2)cc1
  melting point: 123 to 124 °C

## CC(C)N1CSc2nnc(-c3cccc([N+](=O)[O-])c3)n2C1
  melting point: 165 °C

## N=c1sc(C(=O)c2cccs2)nn1-c1ccccc1
  melting point: 134 °C

## NCc1ccccc1O
  melting point: 127 to 131 °C

## S=P(N1CC1)(N1CC1)N1CC1
  melting point: 54 to 57 °C

## CN(C)C1C(=O)C(=C(N)O)C(=O)C2(O)C(=O)C3=C(O)c4c(O)cccc4C(C)(O)C3C(O)C12 (stereo not given)
  melting point: 121 °C

## O[C@@H](c1ccccc1)[C@@H](O)c1ccccc1
  melting point: 149 °C

## CC(C)(C)OC(=O)N1CCN(c2ccc(CN)cc2)CC1
  melting point: 83 to 87 °C

## Sc1nc(S)nc(S)n1
  melting point: 300 °C

## C=CCN=C(NCC=C)c1cc(C(C)(C)C)c(O)c(C(C)(C)C)c1
  melting point: 201 to 202 °C

## CCOC(=O)NNC(=O)Nc1ccccc1
  melting point: 144 to 145 °C

## CN(CCCN1c2ccccc2CCc2ccccc21)CC(=O)c1ccc(Cl)cc1
  melting point: 105 °C

## C=C1C(=O)C23C(OC(C)=O)CC4C(C)(C)CCC(OC(C)=O)C4(C)C2C(OC(C)=O)CC1(OC(C)=O)C3OC(C)=O (stereo not given)
  melting point: 280 °C

## CN(C)C(=O)[C@@H]1OC(C)(C)O[C@H]1C(=O)N(C)C
  melting point: 88 to 91 °C

## CC1=CC(=O)C(C)=CC1=O
  melting point: 123 to 126 °C

## OCc1cc(-c2ccccc2)on1
  melting point: 99 to 102 °C

## O=[N+]([O-])c1c(Cl)c(Cl)cc(Cl)c1Cl
  melting point: 100 °C

## CC(=O)CC(c1ccc([N+](=O)[O-])cc1)c1c(O)oc2ccccc2c1=O (stereo not given)
  melting point: 197 °C

## Fc1cc(F)c(F)c(F)c1
  melting point: -48 °C

## N#CCN1C(=O)c2ccccc2S1(=O)=O
  melting point: 142 to 143 °C

## CCCOCC(=Nc1ccc(Cl)cc1C(F)(F)F)n1ccnc1
  melting point: 63.5 °C

## Cc1n[nH]c(C)c1-c1ccccc1C(=O)O
  melting point: 256 °C

## N#Cn1c(N)nc2ccccc21
  melting point: 175 to 177 °C

## CCCC(O)C1(C)CCC(C(=O)O)C(C)(C)O1 (stereo not given)
  melting point: 179 °C

## O=C(CBr)c1ccccc1[N+](=O)[O-]
  melting point: 55 °C

## Cc1ccc(C)c2ncccc12
  melting point: 4.5 °C

## O=C1C2CC(CN3CCCCC23)C2CCCCN12 (stereo not given)
  melting point: 111 °C

## Brc1ccc2ccc3cccc4ccc1c2c34
  melting point: 95 °C

## CC(=NO)c1ccco1
  melting point: 104 to 105 °C

## Cc1ccccc1CN
  melting point: -30 °C

## O=C1C(=Cc2ccccc2)CCCC1=Cc1ccccc1
  melting point: 118 °C

## CC(C)OC(=O)C1(S(=O)(=O)c2ccc([N+](=O)[O-])cc2)CCCCC1
  melting point: 110 °C

## COc1ccccc1C1Nc2nc(C(F)(F)F)nn2C(N)=C1C#N (stereo not given)
  melting point: 245 °C

## Cc1nc(-c2ccc(C(=O)Cl)s2)cs1
  melting point: 108 to 112 °C

## CCc1cccc(CC)c1NC(=O)CCl
  melting point: 130 °C

## CC1CCC(C)S1 (stereo not given)
  melting point: -89 °C

## CC(C)(C)OC(=O)NC(CI)C(=O)OCc1ccccc1 (stereo not given)
  melting point: 81 °C

## CC(CN1C(=O)c2cccnc2Nc2ccccc21)N(C)C (stereo not given)
  melting point: 122 °C

## CCc1nnc(/N=N/c2c(-c3ccccc3)n(C)c3ccccc23)s1
  melting point: 221 °C

## NS(=O)(=O)c1ccccc1OC(F)(F)F
  melting point: 188 °C

## Cc1ccc(NC(=O)C(O)C(O)C(=O)O)cc1 (single isomer, unassigned; (-))
  melting point: 191 to 192 °C

## COc1ccc(C(C)=O)cc1CCl
  melting point: 116 to 118 °C

## N#CC(Br)c1ccccc1 (stereo not given)
  melting point: 29 °C

## COc1ccc(-c2cc[nH]n2)cc1
  melting point: 127 to 130 °C

## CCC(CO)[N+](=O)[O-] (stereo not given)
  melting point: -47 °C

## Cc1ccc2ccc3ccc(C)nc3c2n1
  melting point: 160 °C

## c1ccc(CN(CC2=NCCN2)c2ccccc2)cc1
  melting point: 120 °C

## O=C(c1ccccc1O)c1ccccc1O
  melting point: 59.5 °C

## CC(C)(C)C1CCCCC1O (stereo not given)
  melting point: 45 °C

## C=C1CC(=O)OC1=O
  melting point: 69 °C

## CC(C)COC(=O)c1ccc(O)cc1
  melting point: 76 °C

## CC(C)CCCC(C)C1CCC2C3CCC4=CC(=O)CCC4(C)C3CCC12C (stereo not given)
  melting point: 79 to 82 °C

## COc1c2ccoc2cc2oc(COC3OC(CO)C(O)C(O)C3O)cc(=O)c12 (stereo not given)
  melting point: 179 °C

## O=Cc1[nH]ncc1Br
  melting point: 80 to 82 °C

## C=C(C)CCCCCCCCCCCC
  melting point: -15 °C

## Nc1ccc(N=Nc2ccc([N+]([O-])=Nc3ccc(N)cc3)cc2)cc1
  melting point: 247 °C

## COc1cc(C(=O)O)c([N+](=O)[O-])c(OC)c1OC
  melting point: 166 to 169 °C

## CC1=C(C(=O)OCc2ccccc2)C(c2ccc(O)c(O)c2)NC(=O)N1 (stereo not given)
  melting point: 214 to 216 °C

## Nc1c(F)c(F)nc(F)c1F
  melting point: 86 °C

## O=C(O)C1CCN(c2ccc(C(F)(F)F)cn2)CC1
  melting point: 162 to 164 °C

## N#Cc1cc([N+](=O)[O-])ccc1Sc1ccc(Cl)cc1
  melting point: 167 to 168 °C

## C#CC(C1COC(C)(C)O1)N(O)Cc1ccccc1 (stereo not given)
  melting point: 115 °C

## CN(C)c1ccc2c(C(F)(F)F)cc(=O)oc2c1
  melting point: 147 to 149 °C

## CCOc1nc2ccccc2c(=O)n1CCO
  melting point: 81 to 82 °C

## c1coc(CNc2ncnc3[nH]cnc23)c1
  melting point: 269 to 271 °C

## O=[N+]([O-])c1c(Cl)cc(Cl)cc1C(Cl)Cl
  melting point: 45 °C

## COc1ccc(/C=C2\CCCC3=C2NC(=S)NC3c2ccc(OC)cc2)cc1 (stereo not given)
  melting point: 184 °C

## CCOP(=S)(OCC)SCn1nnc2ccccc2c1=O
  melting point: 53 °C

## Cc1cc2c(o1)-c1c(oc3ccc(Br)cc13)CCC2(C)c1ccccc1 (stereo not given)
  melting point: 127 °C

## C/C=C/c1ccc(O)c(OC)c1
  melting point: 33.5 °C

## CC(CO)C1=C(O)C(=O)C2=C(CC(O)C3C(C)(C)CCCC23C)C1=O (stereo not given)
  melting point: 186 °C

## Sc1nnc2ccccn12
  melting point: 213 to 214 °C

## CCOC(=O)C(Br)C(Br)c1ccccc1 (stereo not given)
  melting point: 77 to 79 °C

## CC(C)(C)C(=O)OCOc1ccccc1C(N)=O
  melting point: 95 °C

## Cc1c(C)c(C)c2c(c1C)CC1C=CC=CN1C2=O (stereo not given)
  melting point: 139 °C

## OCc1cccc2c1OCCO2
  melting point: 54 to 55 °C

## O=C1C(Cl)=C(Cl)C(Cl)=C(Cl)C1(Cl)Cl
  melting point: 46 to 49 °C

## OCC1(O)OCC(O)C(O)C1O (stereo not given)
  melting point: 119 °C

## CCCCCCC(=O)CCCCC
  melting point: 10 °C

## Cc1cc(C(=O)O)c(C(F)(F)F)o1
  melting point: 124 to 126 °C

## CC(CCC(=O)O)C1CCC2C3C(O)CC4CC(O)CCC4(C)C3CC(=O)C12C (stereo not given)
  melting point: 220 °C

## O=C1OC(=O)c2cc([N+](=O)[O-])ccc21
  melting point: 115 °C

## COC(=O)c1cc2cc(N)ccc2s1
  melting point: 178 to 179 °C

## CC12CCC(C(=O)OC1=O)C2(C)C (stereo not given)
  melting point: 221 °C

## NCc1cc2cc(Br)ccc2o1
  melting point: 39 to 40 °C

## O=C(O)C=Cc1cccc(C(Br)=C(Br)C(=O)O)c1
  melting point: 214 °C
